Data taken from article PMC12408343, “Deep learning reveals antibiotics in the archaeal proteome” (Nature Microbiology, 2025).
≈ marks a conversion by molar mass, not a printed value. Peptide text beside a SMILES is read from it.

Key:
[1] = test system: human red blood cells (RBCs); conditions: for HC50 (source data of Fig. 4) / HC50, peptide concentration leading to 50% RBC lysis: red cells of human, 4 h
Protocol: To assess the potential toxicity of the synthesized archaeasins, we exposed them to human red blood cells (RBCs), a common method for evaluating the toxicity of antimicrobial agents[20],[26],[27].
To evaluate the release of haemoglobin from human erythrocytes upon treatment of each of the EPs, human RBCs were obtained from Zen-Bio (donor, blood type A^−) obtained from heparin anti-coagulated blood. RBCs were washed with PBS (pH 7.4) 4× by centrifugation at 800g for 10 min. Aliquots of 200-fold-diluted cells (75 μl) were mixed with peptide solution (0.78–100 μmol l^−1; 75 μl), and the mixture was incubated for 4 h at room temperature. After incubation, the plate was centrifuged at 1,300g for 10 min to precipitate cells and debris, and 100 μl of supernatant from each well was transferred to a new 96-well plate for absorbance reading (405 nm) using an automatic plate reader. The percentage of haemolysis was defined by comparison with negative control (samples containing PBS) and positive control (samples containing 1% (v/v) SDS in PBS solution). Haemolysis(%)=100×(absorbance405nmpeptide−absorbance405nmnegativecontrol)/(absorbance405nmpositivecontrol−absorbance405nmnegativecontrol)
All assays were performed in three independent biological replicates as indicated in each figure legend and in the Methods. […] In the skin abscess and thigh infection mouse models, we used six mice per group following established protocols approved by the University Laboratory of Animal Resources of the University of Pennsylvania.
Extended Data Fig. 7 Hemolytic activity of archaeasins. Hemolytic activity was assessed by exposing red blood cells to archaeasins, with lysis determined by absorbance readings after 4 h. The peptides were added to plates and subjected to a two-fold dilution series (ranging from 64 to 4 μmol L^−1) before exposure to the red blood cells. Source data

[2] = test system: E. coli AIC222 (colistin-resistant, CRE); assay: microbe, parasite or virus in culture; parameters: MIC, E. coli AIC222 - CRE (-): unit not given beside the values; conditions: Fig 2a source data; Gram-negative, CRE; broth microdilution
Protocol: (§1) Briefly, 10^5 bacterial cells were incubated with serially diluted EPs (0–64 μmol l^−1) at 37 °C. Bacterial growth was assessed by measuring the optical density at 600 nm in a microplate reader at 1 day post-treatment. […] Secondary structure fractions were calculated using the BeStSel server. fH and fβ stand for helical and β fractions, respectively.

A. baumannii = assay: Cytoplasmic membrane fluidity, Laurdan generalized polarization; format: cell-based, Acinetobacter baumannii; conditions: peptides at 100× MIC stock diluted 1:100, 30 min, λex 350, λem 440/490 nm; mean of 3 independent experiments
Excerpt: Fig. 4 Mechanism of action, haemolytic activity and cytotoxicity of antibiotics from the archaeome. […] The fluorescence probe NPN was used to assess membrane permeabilization (a) induced by the tested EPs (Extended Data Fig. 6a). The fluorescence probe DiSC3-5 was used to evaluate membrane depolarization (b) caused by archaeasins (Extended Data Fig. 6b). The shown values represent the relative fluorescence of both probes, with nonlinear fitting compared with the baseline of the untreated control (buffer + bacteria + fluorescence dye) and benchmarked against the antibiotics polymyxin B and levofloxacin. c, Laurdan generalized polarization over time in A. baumannii treated with archaeasins. […] Higher generalized polarization values indicate increased membrane rigidity, whereas lower values reflect increased membrane fluidity. Benzyl alcohol was used as a positive control for membrane fluidization, and untreated cells served as a negative control. […] All experiments were performed in three independent replicates (Extended Data Fig. 7). The protein and peptide structures depicted in panels a and b were created with PyMOL Molecular Graphics System, v.3.0 (Schrödinger).

E. coli AIC221 = assay: microbe, parasite or virus in culture; parameters: MIC, E. coli AIC221 (-): unit not given beside the values; conditions: for MIC E. coli AIC221 (−): AIC221, 24 h; for MIC, E. coli AIC221 (-): Fig 2a source data, Gram-negative, broth microdilution
Protocol: as §1

E. coli ATCC 11775 = assay: microbe, parasite or virus in culture; parameters: MIC, E. coli ATCC 11775 (-): unit not given beside the values; conditions: for MIC, E. coli ATCC 11775 (-): Fig 2a source data, Gram-negative, broth microdilution
Protocol: as §1

K. pneumoniae ATCC 13883 = assay: microbe, parasite or virus in culture; conditions: for MIC K. pneumoniae ATCC 13883 (−): ATCC 13883, 24 h; for MIC, K. pneumoniae ATCC 13883 (-): Fig 2a source data, Gram-negative, broth microdilution
Protocol: as §1

A. baumannii ATCC 19606 = assay: microbe, parasite or virus in culture
Protocol: as §1

P. aeruginosa PAO1 = assay: microbe, parasite or virus in culture; parameters: MIC, P. aeruginosa PAO1 (-): unit not given beside the values
Protocol: as §1

P. aeruginosa PA14 = assay: microbe, parasite or virus in culture; parameters: MIC, P. aeruginosa PA14 (-): unit not given beside the values
Protocol: as §1

[3] = test system: S. aureus ATCC BAA-1556 (MRSA); assay: microbe, parasite or virus in culture; parameters: MIC, S. aureus ATCC BAA-1556 - MRSA (+): unit not given beside the values
Protocol: as §1

S. aureus ATCC 12600 = assay: microbe, parasite or virus in culture
Protocol: as §1

[4] = test system: E. faecium ATCC 700221 (VRE); assay: microbe, parasite or virus in culture; conditions: for MIC E. faecium ATCC 700221 – VRE (+): ATCC 700221, 24 h; for MIC, E. faecium ATCC 700221 - VRE (+): Fig 2a source data, Gram-positive, broth microdilution
Protocol: as §1

[5] = Fig 2a source data, Gram-negative, broth microdilution

Compound	HC50 (source data of Fig. 4) [1] [µmol/L]	HC50, peptide concentration leading to 50% RBC lysis [1] [µmol/L]	MIC, E. coli AIC222 - CRE (-) [2]	Laurdan generalized polarization change of cytoplasmic membrane (A. baumannii)	MIC E. coli AIC221 (−) (E. coli AIC221) [µM]	MIC, E. coli AIC221 (-) (E. coli AIC221)	MIC, E. coli ATCC 11775 (-) (E. coli ATCC 11775)	MIC K. pneumoniae ATCC 13883 (−) (K. pneumoniae ATCC 13883) [µM]	MIC, K. pneumoniae ATCC 13883 (-) (K. pneumoniae ATCC 13883)	MIC, A. baumannii ATCC 19606 (-) (A. baumannii ATCC 19606)	MIC E. faecium ATCC 700221 – VRE (+) [4] [µM]	MIC, E. faecium ATCC 700221 - VRE (+) [4]	further results
CC[C@H](C)[C@H](N)C(=O)NCC(=O)N[C@@H](Cc1c[nH]c2ccccc12)C(=O)N[C@H](C(=O)N[C@@H](CO)C(=O)N[C@@H](CC(N)=O)C(=O)N[C@@H](CCCNC(=N)N)C(=O)N[C@H](C(=O)N[C@H](C(=O)N[C@@H](CC(C)C)C(=O)N[C@@H](CCCCN)C(=O)N[C@@H](CC(C)C)C(=O)N[C@@H](CC(C)C)C(=O)N[C@@H](CCCNC(=N)N)C(=O)N[C@@H](Cc1ccccc1)C(=O)N[C@@H](C)C(=O)N[C@@H](CCCCN)C(=O)N[C@@H](CC(N)=O)C(=O)N[C@@H](CCSC)C(=O)N[C@@H](CCCCN)C(=O)O)[C@@H](C)CC)C(C)C)[C@@H](C)CC [Archaeasin-22] (H-IGWISNRVILKLLRFAKNMK-OH; N-terminus and C-terminus assumed)	7.224	7	4	only modest or even decreasing generalized polarization shifts	2 (≈ 4.8 µg/mL)	2	16	16 (≈ 38.4 µg/mL)	16	1	–	–	MIC E. coli ATCC 11775 (−) (E. coli ATCC 11775; ATCC 11775, 24 h): 16 µM (≈ 38.4 µg/mL)
CC[C@H](C)[C@H](NC(=O)[C@H](CC(C)C)NC(=O)[C@H](CC(C)C)NC(=O)[C@H](CCCNC(=N)N)NC(=O)[C@H](C)NC(=O)[C@H](CC(C)C)NC(=O)[C@H](Cc1ccc(O)cc1)NC(=O)CNC(=O)[C@H](C)NC(=O)CN)C(=O)N[C@@H](CCCNC(=N)N)C(=O)N[C@@H](CCCNC(=N)N)C(=O)N[C@@H](CO)C(=O)N[C@@H](CC(C)C)C(=O)N[C@@H](CCCNC(=N)N)C(=O)N[C@@H](CC(C)C)C(=O)N[C@@H](CC(C)C)C(=O)N[C@@H](CCCNC(=N)N)C(=O)N[C@@H](CCCNC(=N)N)C(=O)N[C@@H](CC(C)C)C(=O)O [Archaeasin-78] (H-GAGYLARLLIRRSLRLLRRL-OH; N-terminus and C-terminus assumed)	5.537	6	4	pronounced increases in generalized polarization values over time	1 (≈ 2.37 µg/mL)	1	32	4 (≈ 9.47 µg/mL)	4	1	1 (≈ 2.37 µg/mL)	1	MIC, P. aeruginosa PAO1 (-) (P. aeruginosa PAO1; [5]): 8; MIC P. aeruginosa PAO1 (−) (P. aeruginosa PAO1; PAO1, 24 h): 8 µM (≈ 18.9 µg/mL); MIC, P. aeruginosa PA14 (-) (P. aeruginosa PA14; [5]): 16; MIC P. aeruginosa PA14 (−) (P. aeruginosa PA14; PA14, 24 h): 16 µM (≈ 37.9 µg/mL); haemolytic effects [1]: did show haemolytic effects; MIC S. aureus ATCC BAA-1556 – MRSA (+) ([3]; ATCC BAA-1556, 24 h): 8 µM (≈ 18.9 µg/mL); MIC, S. aureus ATCC BAA-1556 - MRSA (+) ([3]; Fig 2a source data, Gram-positive, MRSA, broth microdilution): 8; MIC S. aureus ATCC 12600 (+) (S. aureus ATCC 12600; ATCC 12600, 24 h): 8 µmol/L (≈ 18.9 µg/mL); MIC S. aureus ATCC 12600 (+) (S. aureus ATCC 12600; Fig 2a source data, Gram-positive, broth microdilution): 8
CC[C@H](C)[C@H](N)C(=O)N[C@@H](CC(C)C)C(=O)NCC(=O)NCC(=O)N[C@@H](CCCCN)C(=O)N[C@@H](CC(C)C)C(=O)N[C@H](C(=O)N[C@@H](CCCCN)C(=O)N[C@@H](CCCCN)C(=O)N[C@@H](CO)C(=O)N[C@@H](CC(C)C)C(=O)N[C@@H](CCCCN)C(=O)N[C@@H](CC(C)C)C(=O)O)[C@@H](C)CC [Archaeasin-21] (H-ILGGKLIKKSLKL-OH; N-terminus and C-terminus assumed)	–	–	64	only modest or even decreasing generalized polarization shifts	–	–	–	–	–	64	64 (≈ 90.3 µg/mL)	64	–
CC[C@H](C)[C@H](NC(=O)[C@H](Cc1c[nH]c2ccccc12)NC(=O)[C@H](CCCCN)NC(=O)[C@H](CC(C)C)NC(=O)[C@H](CCCNC(=N)N)NC(=O)[C@H](C)NC(=O)[C@H](CCCNC(=N)N)NC(=O)[C@H](C)NC(=O)[C@H](CC(C)C)NC(=O)[C@H](Cc1c[nH]c2ccccc12)NC(=O)[C@@H](N)CC(C)C)C(=O)N[C@H](C(=O)O)[C@@H](C)O [Archaeasin-57] (H-LWLARARLKWIT-OH; N-terminus and C-terminus assumed)	203.9	–	64	pronounced increases in generalized polarization values over time	64 (≈ 97.7 µg/mL)	64	–	–	–	16	8 (≈ 12.2 µg/mL)	8	–
